From patent publication US12414918B2, “Pharmaceutical composition of lipid nanoparticle for delivering nucleic acid drug containing trehalose derivative and novel structure-maintaining lipid compound” (SML BIOPHARM CO., LTD., priority 2021, dated 2025)

System: Renilla luciferase (R/L) expression
Test: Evaluation of delivery efficiency by detection of protein expression level (R/L mRNA-LNP injected intradermally into mouse ear, luminescence of ear lysate)
Assay type: in vivo, ICR mice
Conditions: ionizable lipid:trehalose-based lipid:DOPE:cholesterol (or substitute):DMG-PEG 25:25:10:38.5:1.5
Procedure: An RNA platform in which a nucleic acid sequence encoding Renilla luciferase (R/L), which has an IRES element derived from encephalomyocarditis virus (EMCV) and is a known reporter gene, was inserted as a target sequence was constructed. The template DNA was designed and the nucleic acid molecule of the single-stranded RNA platform was constructed using an IVT procedure.
Lipid nanoparticles were prepared from 0.625 mg/mL of an RNA solution (50 mM sodium citrate buffer, 110 mM NaCl, pH=4.0) and a lipid-mixture solution (ethanol) using a laboratory mixer and emulsifier (NanoAssembir Spark, Precision NanoSystems) and subjected to solvent conversion with physiological saline using a filter tube for centrifugation (UFC5010, Amicon). […]
The experiment was performed according to the following procedure. […] R/L, which was actually tested, expression, and maintenance were detected at two points of time: after 6 hours and 24 hours.
Each mouse was anesthetized using a respiratory anesthetic, and a drug that satisfied the experimental conditions was injected into the mouse through an insulin syringe. […] Then, 20 μl of the mixture was transferred to a white 96-well plate, 100 μl of Renilla luciferase assay substrate from Promega Corporation was added thereto, and luminescence was measured to compare expression.

## CCCCOC(=O)CC[C@H](C)[C@H]1CC[C@H]2[C@@H]3CC[C@@H]4C[C@H](O)CC[C@]4(C)[C@H]3CC[C@]12C [Formula 4]
  usability as cholesterol substitute in lipid nanoparticles: appropriate cholesterol substitutes

## CCC(C)CCOC(=O)CC[C@H](C)[C@H]1CC[C@H]2[C@@H]3CC[C@@H]4C[C@H](O)CC[C@]4(C)[C@H]3CC[C@]12C (some centres unmarked) [Formula 5]
  usability as cholesterol substitute in lipid nanoparticles: appropriate cholesterol substitutes
